From article PMC7146544, “Dual Plasmepsin-Targeting Antimalarial Agents Disrupt Multiple Stages of the Malaria Parasite Life Cycle” (Cell Host & Microbe, 2020)
Values joined by “and” are separate entries in the source; they are usually repeats but may differ in a detail not shown here. Equal entries are not always repeated. Where two headings read alike, the source gives them in different places.

What was measured:
[1] = test system: P. berghei; assay: Peters' 4-day suppressive test for P. berghei infection in mice; type: in vivo, Plasmodium berghei; settings: 4 days
Experimental: For results shown in Figure 1 A male Swiss mice were infected intraperitoneally (IP) with 1 × 10^6 P. berghei ANKA-parasitised red blood cells withdrawn from a previously infected donor mouse. Test compounds were prepared in a vehicle consisting of 10% DMSO/90% Solutol (5% Solutol® HS-15 in 0.9% saline). […] Peripheral blood samples were taken 24 h after administration of the last dose, and parasitemia was measured by microscopic analysis of Giemsa-stained blood smears. Parasitemia values were averages for 6 mice per group and are expressed as percent parasitemia. For results shown in Figure 4A ‘donor’ female Swiss mice were infected intraperitoneally (IP) with blood stage P. berghei parasites constitutively expressing GFP (P. berghei ANKA GFPcon 259cl2 ([Franke-Fayard et al., 2004]). Three days later, groups of 4 ‘acceptor’ Swiss mice were infected intravenously (IV) with 1 × 10^7 parasitised erythrocytes from the ‘donor’ mice. Two h post infection, experimental mice (4 per cohort) were left untreated (control mice) or treated orally on 4 consecutive days with test drugs formulated in 20% DMSO/60% PG/20% water (v/v/v) or chloroquine dissolved in water. […] Peripheral blood samples were taken 12 h after the last treatment, and parasitemia measured by flow cytometry (proportion of GFP-positive cells in 100,000 recorded events using FACSCalibur, BD) and microscopic analysis of Giemsa-stained blood smears. Parasitemia values were averages for 4 mice per group and are expressed as percent parasitemia.

[2] = test system: WM5 and 4 resistant P. falciparum; assay: microbe, parasite or virus in culture; type: cell-based, Plasmodium falciparum
Experimental: After 72 h incubation at 37°C each well was fixed at room temperature for 30 min with 50 μL of 0.25% glutaraldehyde (ProSciTech) diluted in PBS. Following centrifugation at 1200 rpm for 1 min, supernatants were discarded and parasites were stained with 50 μL of 5X SYBR Green (Invitrogen) diluted in PBS. 50,000 cells were counted by flow cytometry using a Cell Lab Quanta SC – MPL Flow Cytometer (Beckman Coulter) ([Bacon et al., 2007]). Growth was expressed as a percentage of the parasitemia obtained using a vehicle control. All samples were tested in triplicate. EC50 values were determined using GraphPad Prism.
The parent and resistant lines were then cloned by limiting dilution, the EC50 for each line was determined and genomic DNA was purified from clonal parasites (QIAGEN Blood and Tissue Kit).

[3] = test system: P. falciparum schizonts (3D7); assay: P. falciparum schizont egress inhibition assay; type: cell-based, Plasmodium falciparum; settings: compared with control
Experimental: Parasites purified by magnet separation (MACS; Miltenyi Biotec) were eluted into complete RPMI containing 1 nM Compound 1 (C1) to prevent further egress and synchronize egress to within a 5 min window ([Pino et al., 2017]). When schizont preparations were fully mature, the C1 was washed out with warm complete RPMI-HEPES medium and schizonts transferred to a microscopy chamber for live video time lapse (1 frame per 0.5 s) imaging under DIC conditions using a Zeiss Live Cell Axio observer microscope with x63 oil immersion objective and Zen Blue software used for image capture. Videos (Videos S1 and S2) were processed using Fiji (https://www.nature.com/articles/nmeth.2019). Total parasite numbers and egress events were calculated over 5 min window and expressed as average ± SD of 3 replicate experiments. Because the purified late-stage parasites cannot be fully synchronized to egress within the observation time window, only a proportion of the schizonts will egress during the period of observation. Because all treatment groups originated from the same culture (ie those treated with compound and DMSO vehicle control) the developmental stage is consistent between treatments and the difference in egress quantitation can be attributable to the drug treatment.

[4] = test system: PMIX; assay: CETSA thermal stability assay, PMIX; type: binding, P. falciparum
Experimental: Lysate CETSA experiments were conducted essentially as described ([Dziekan et al., 2019]). Samples for CETSA studies were prepared using highly synchronous schizont stage P. falciparum 3D7-PMIX_HA and 3D7-PMX_HA parasites. Late-stage parasites (40–44 h post-invasion) were purified by Percoll density gradient and incubated with 1 μM compound 1 (C1) inhibitor (synthesized in-house) ([Hale et al., 2017]). After 2–4 h incubation, mature schizonts were washed once with PBS and pelleted infected red blood cells were lysed in 20 volumes of 0.15% (w/v) saponin in PBS and incubated on ice for 20 min. Parasites were washed 3 times in ice-cold PBS and the final pellet was resuspended in 10 volumes of lysis buffer (0.4% NP-40 (Roche) / PBS) and lysed by three freezing (dry ice/ethanol bath) - thawing cycles. The lysates were cleared by centrifugation at 16,000 g for 30 min and the supernatant containing soluble parasite proteins kept at −80°C until use. […] After blocking the membrane in 5% non-fat milk in TBST (M-TBST), PMIX_HA and PMX_HA were detected with anti-HA mAb 12CA5 (produced in-house) followed by HRP-conjugated a-mouse IgG Abs (Merck). Blots were developed with ECL Western Blotting Substrate (Thermo Fisher Scientific), and the images were generated and analyzed using ChemiDoc Gel Imaging System and Image Lab Software (Bio-Rad).

[5] = test system: P. falciparum merozoites (3D7); assay: Invasion assay; type: cell-based, Plasmodium falciparum; settings: 40 nM WM4; 2.5 nM WM382; merozoites released by mechanical rupture
Experimental: Late-stage parasites (> 40 h post invasion) were enriched by magnet separation (MACS; Miltenyi Biotec) and allowed to develop to fully segmented schizont-stage parasites. To prevent schizont rupture and merozoites release, control parasites were incubated with 1 μM compound 1 (C1). […] Filtrate containing purified merozoites was immediately added to fresh erythrocytes (70%–80% hematocrit), incubated in a shaker (1,100 rpm) at 37°C for 20 min to allow invasion of host cells, and then diluted to 2% hematocrit. After 24 h incubation at 37°C, invasion was evaluated by measuring parasitemia by microscopy (Giemsa-stained thin smears) and flow cytometry (100,000 cells counted with FACSCalibur, BD).

[6] = biological target: recombinant PMX protein (rPMX) (Plasmodium falciparum, UniProt Q8IAS0); assay: biochemical
Experimental: All wells were backfilled to 200 nL DMSO such that it remains constant across the assay plates (1% final). IC50 values were calculated by Dotmatics 5.3 and Spotfire 7.11.1 software using a nonlinear regression four-parameter fit analysis. The equation used is sigmoidal dose response (variable slope), Y = bottom + (top − bottom)/(1+10((logEC50 − X) × Hill Slope)). Compound Ki values were calculated from the IC50s using the Cheng-Prusoff equation, Ki = IC50/(1 + [S]/Km).
All compound potency assays were conducted in 20 μl total volume. For each assay, 10 μl of recombinant enzymes in respective assay buffers (Table) were dispensed into compound containing assay plates using a Multidrop Combi dispenser and allowed to incubate for 15 min. The reactions were started with a further 10 μl addition of FRET peptide substrates and reactions incubated at 37 °C for various times (Table).Samples were excited at 340 nm and fluorescence emission measured at 492 nm using an Envision fluorescence plate reader (Perkin-Elmer).

[7] = test system: P. falciparum 3D7-PMIX-HA; assay: EC50 in knock down parasite line 3D7-PMIX-HA; type: cell-based, Plasmodium falciparum; settings: presence vs absence of 2.5 mM GlcN
[8] = Plasmodium falciparum, 3D7, read-out: EC50, 3D7-WM4.1, WM4-resistant line 3D7-WM4.1
[9] = Plasmodium falciparum, 3D7, read-out: EC50, 3D7-WM5.1, WM5-resistant line 3D7-WM5.1

recombinant PMX protein (rPMX), sequence (Q8IAS0 222-573): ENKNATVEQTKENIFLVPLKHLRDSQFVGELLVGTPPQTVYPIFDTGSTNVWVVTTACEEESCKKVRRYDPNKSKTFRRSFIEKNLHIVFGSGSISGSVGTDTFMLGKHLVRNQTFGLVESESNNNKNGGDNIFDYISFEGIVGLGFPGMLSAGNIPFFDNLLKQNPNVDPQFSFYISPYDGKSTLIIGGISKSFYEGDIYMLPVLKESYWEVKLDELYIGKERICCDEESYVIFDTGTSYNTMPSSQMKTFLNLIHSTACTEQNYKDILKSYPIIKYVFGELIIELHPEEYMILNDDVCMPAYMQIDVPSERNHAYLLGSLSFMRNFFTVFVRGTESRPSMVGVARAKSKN

Row | Compound | in vivo activity against P. berghei infection ([1]; intraperitoneal, 20 mpk q.d., Swiss mice) | EC50 [2, 8] [nM] | EC50 ([2]; Plasmodium falciparum, 3D7, read-out: EC50, 3D7-WM4.2, WM4-resistant line 3D7-WM4.2, Figure S1) [nM] | EC50 [2, 9] [nM] | EC50 ([2]; Plasmodium falciparum, 3D7, read-out: EC50, 3D7-WM5.2, WM5-resistant line 3D7-WM5.2, Figure S1) [nM] | EC50 ([2]; Plasmodium falciparum, 3D7, read-out: EC50, 3D7-WM5.3, WM5-resistant line 3D7-WM5.3, Figure S1) [nM] | EC50 ([2]; read-out: EC50, 3D7-WM4.1, WM4-resistant line 3D7-WM4.1) | EC50 ([2]; read-out: EC50, 3D7-WM5.1, WM5-resistant line 3D7-WM5.1) [nM] | egress of merozoites from the erythrocyte [3] | effect on thermal stability of PMIX [4] | ability of merozoites to invade erythrocytes [5] | IC50 [6] [nM] | Ki [6] [nM] | change of EC50 when PMIX expression was decreased [7] | in vivo efficacy against P. berghei ([1]; oral, 20 mg/kg (mpk) b.i.d.)
1 | CC(NC(=O)c1cccc(C(c2ccccc2)N2C(=N)NC(C)(C(C)C)CC2=O)c1)c1ccccc1 (racemic) [WM4] | partial efficacy | 113 ± 2.3 | 140 ± 52.7 | 93.2 ± 2.04 | 142 ± 5.5 | 135 ± 3.8 | 93 nM and 65.9 nM | 115 ± 18.8 | potently inhibited egress of merozoites | no effect on the thermal stability of PMIX | significantly less able to invade | 0.81 | 0.5 ± 0.2 | no significant change | 
2 | CCC1(CC)CC(=O)N([C@@H]2CCOc3ccc(C(=O)N[C@H]4CC(C)(C)Oc5ccccc54)cc32)C(=N)N1 [WM382] |  | 1.88 ± 0.03 |  | 2.04 ± 0.05 |  |  |  |  | potently inhibited egress of merozoites | significantly more thermostable | unable to invade erythrocytes | 0.06 | 0.035 ± 0.008 | significantly more sensitive | significantly greater in vivo efficacy than WM4 and WM5
